Target: T1, GVIA iPLA2 (Homo sapiens, UniProt O60733)
T1 sequence (O60733 1-806): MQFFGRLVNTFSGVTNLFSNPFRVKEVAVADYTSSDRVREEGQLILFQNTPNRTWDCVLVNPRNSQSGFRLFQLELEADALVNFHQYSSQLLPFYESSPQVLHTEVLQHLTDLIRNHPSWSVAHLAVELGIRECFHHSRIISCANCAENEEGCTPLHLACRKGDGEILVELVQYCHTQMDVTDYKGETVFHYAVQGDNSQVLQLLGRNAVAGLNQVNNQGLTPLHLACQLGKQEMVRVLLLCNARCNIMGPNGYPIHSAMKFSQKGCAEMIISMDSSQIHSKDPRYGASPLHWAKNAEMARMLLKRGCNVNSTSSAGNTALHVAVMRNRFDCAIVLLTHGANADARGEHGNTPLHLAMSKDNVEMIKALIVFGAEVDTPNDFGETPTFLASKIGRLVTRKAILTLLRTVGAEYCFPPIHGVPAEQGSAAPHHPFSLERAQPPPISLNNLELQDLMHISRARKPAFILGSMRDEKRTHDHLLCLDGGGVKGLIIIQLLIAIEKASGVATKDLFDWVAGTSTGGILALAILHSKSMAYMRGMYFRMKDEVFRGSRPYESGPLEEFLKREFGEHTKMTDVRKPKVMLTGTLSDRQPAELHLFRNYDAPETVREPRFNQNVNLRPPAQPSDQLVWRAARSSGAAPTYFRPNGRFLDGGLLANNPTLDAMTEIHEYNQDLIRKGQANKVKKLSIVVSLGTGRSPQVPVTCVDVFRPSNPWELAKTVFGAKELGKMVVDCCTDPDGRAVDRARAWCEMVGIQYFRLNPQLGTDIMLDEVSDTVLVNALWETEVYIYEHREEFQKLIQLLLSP
Assay: hydrogen/deuterium exchange mass spectrometry
Format: binding

Q: With `CCCCCCCCSCC(=O)C(F)(F)F` [Compound 3] as the molecule, how does the “Average % Deuteration (Presence of OTFP)” value (peptide region 481-493) read?
A: 27%

Q: What about the “Average % Deuteration (Presence of OTFP)” value (peptide region 514-524) of the same molecule?
A: 48%

Q: What about the “Average % Deuteration (Presence of OTFP)” value (peptide region 542-562) of the same molecule?
A: 51%

Q: What about the “Average % Deuteration (Presence of OTFP)” value (peptide region 630-655) of the same molecule?
A: 48%

Q: What about the “Average % Deuteration (Presence of OTFP)” value (peptide region 656-664) of the same molecule?
A: 49%

Q: And the “Average % Deuteration (Presence of OTFP)” value (peptide region 770-778)?
A: 43%
